Reference: patent US11825838B2, “Tricyclic carboxamides for controlling arthropods” (Bayer CropScience Aktiengesellschaft, priority 2017, dated 2023)

Columns and labels:
Format in all cases: in vivo
Myzus persicae = Myzus persicae spray test (MYZUPE)
Experimental: Myzus persicae—Spray Test
(§1) To produce a suitable active ingredient formulation, 1 part by weight of active ingredient is dissolved with the specified parts by weight of solvent and made up to the desired concentration with water containing an emulsifier concentration of 1000 ppm. To produce further test concentrations, the formulation is diluted with emulsifier-containing water.
Discs of Chinese cabbage leaves (Brassica pekinensis) infested by all stages of the green peach aphid (Myzus persicae) are sprayed with an active compound preparation of the desired concentration.
After 5 days, the efficacy in % is determined. 100% means that all the aphids have been killed; 0% means that no aphids have been killed.
Myzus Persicae—Spray Test (MYZUPE)
as §1, with “compound” for “ingredient”
Discs of Chinese cabbage leaves (Brassica pekinensis) infested with all stages of the green peach aphid (Myzus persicae) are sprayed with an active compound formulation of the desired concentration.
After the desired time, the efficacy in % is determined. 100% means that all the aphids have been killed; 0% means that no aphids have been killed.

Phaedon cochleariae = Phaedon cochleariae spray test (PHAECO); conditions: for efficacy / pest or weed control at 100 g/ha: application rate 100 g/ha, spray, after 7 days; for pest or weed control at 100 g/ha: read-out: efficacy
Experimental: Phaedon cochleariae—Spray Test
as §1
After 7 days, the efficacy in % is determined. 100% means that all the beetle larvae have been killed; 0% means that no beetle larvae have been killed.
Phaedon cochleariae—Spray Test (PHAECO)
as §1, with “compound” for “ingredient”
Discs of Chinese cabbage leaves (Brassica pekinensis) are sprayed with an active compound formulation of the desired concentration and, after drying, populated with larvae of the mustard beetle (Phaedon cochleariae).
After the desired time, the efficacy in % is determined. 100% means that all the beetle larvae have been killed; 0% means that no beetle larvae have been killed.

Spodoptera frugiperda = Spodoptera frugiperda spray test (SPODFR); conditions: for efficacy / pest or weed control at 100 g/ha: application rate 100 g/ha, spray, after 7 days; for pest or weed control at 100 g/ha: read-out: efficacy
Experimental: Spodoptera frugiperda—Spray Test
as §1
Leaf discs of maize (Zea mays) are sprayed with an active ingredient formulation of the desired concentration and, after drying, populated with caterpillars of the armyworm (Spodoptera frugiperda).
After 7 days, the efficacy in % is determined. 100% means that all the caterpillars have been killed; 0% means that no caterpillar has been killed.
Spodoptera frugiperda—Spray Test (SPODFR)
as §1, with “compound” for “ingredient”
Leaf discs of maize (Zea mays) are sprayed with an active compound formulation of the desired concentration and, after drying, populated with caterpillars of the armyworm (Spodoptera frugiperda).
After the desired time, the efficacy in % is determined. 100% means that all the caterpillars have been killed; 0% means that no caterpillar has been killed.

Tetranychus urticae = Tetranychus urticae spray test, OP-resistant (TETRUR); conditions: for efficacy: spray, after 6 days
Experimental: Tetranychus urticae—Spray Test, OP-Resistant
as §1
Discs of bean leaves (Phaseolus vulgaris) infested with all stages of the greenhouse red spider mite (Tetranychus urticae) are sprayed with an active compound preparation of the desired concentration.
After 6 days, the efficacy in % is determined. 100% means that all the spider mites have been killed; 0% means that no spider mites have been killed.
Tetranychus urticae—Spray Test; OP-Resistant (TETRUR)
as §1, with “compound” for “ingredient”
Discs of bean leaves (Phaseolus vulgaris) infested with all stages of the greenhouse red spider mite (Tetranychus urticae) are sprayed with an active compound formulation of the desired concentration.
After the desired time, the efficacy in % is determined. 100% means that all the spider mites have been killed; 0% means that no spider mites have been killed.

Rhipicephalus sanguineus = Rhipicephalus sanguineus in vitro contact test with adult brown dog ticks; conditions: application rate 5 μg/cm^2 (=500 g/ha), after 48 h, adult dog ticks dead or moribund
Experimental: Rhipicephalus sanguineus—In Vitro Contact Tests with Adult Brown Dog Ticks
For the coating of the test tubes, 9 mg of active ingredient are first dissolved in 1 ml of acetone p.a. and then diluted to the desired concentration with acetone p.a. 250 μl of the solution are distributed homogeneously on the inner walls and the base of a 25 ml glass tube by turning and rocking on an orbital shaker (rocking rotation at 30 rpm for 2 h). With 900 ppm of active ingredient solution and internal surface area 44.7 cm^2, given homogeneous distribution, an area-based dose of 5 μg/cm^2 is achieved.
After the solvent has evaporated off, the tubes are populated with 5-10 adult dog ticks (Rhipicephalus sanguineus), sealed with a perforated plastic lid and incubated in a horizontal position in the dark at room temperature and ambient humidity. After 48 h, efficacy is determined. To this end, the ticks are knocked to the base of the tube and incubated on a hotplate at 45-50° C. for not more than 5 min. Ticks which remain motionless on the base or move in such an uncoordinated manner that they are unable to deliberately avoid the heat by climbing upwards are considered to be dead or moribund.
An efficacy of 100% means that all the ticks were dead or moribund. 0% efficacy means that none of the ticks were harmed.

[1] = system: cattle ticks (Boophilus microplus) Parkhurst strain, SP-resistant; assay: Boophilus microplus dip test; conditions: application rate 100 ppm, assessed after 7 days by laying of fertile eggs
Experimental: Boophilus microplus—Dip Test
Test animals: cattle ticks (Boophilus microplus) Parkhurst strain, SP-resistant
(§2) Solvent: dimethyl sulfoxide
10 mg of active ingredient are dissolved in 0.5 ml of dimethyl sulfoxide. To produce a suitable formulation, the active ingredient solution is diluted with water to the concentration desired in each case. This active ingredient formulation is pipetted into tubes. 8-10 engorged adult female cattle ticks (Boophilus microplus) are transferred into a further tube with holes. The tube is immersed into the active ingredient formulation, and all the ticks are completely wetted. After the liquid has run out, the ticks are transferred on filter discs into plastic dishes and stored in a climate-controlled room.
(§3) Efficacy is assessed after 7 days by laying of fertile eggs. Eggs which are not visibly fertile are stored in a climate-controlled cabinet until the larvae hatch after about 42 days. An efficacy of 100% means that none of the ticks has laid any fertile eggs; 0% means that all the eggs are fertile.

Boophilus microplus = Boophilus microplus injection test; conditions: application rate 20 μg/animal, assessed after 7 days by laying of fertile eggs
Experimental: Boophilus microplus—Injection Test
as §2
To produce a suitable active compound preparation, 10 mg of active compound are mixed with 0.5 ml of solvent and the concentrate is diluted to the desired concentration with solvent.
1 μl of the active ingredient solution is injected into the abdomen of 5 engorged adult female cattle ticks (Boophilus microplus). The animals are transferred into dishes and kept in a climate-controlled room.
as §3

Ctenocephalides felis = Ctenocephalides felis oral test; conditions: application rate 100 ppm in citrated cattle blood, after 2 days
Experimental: Ctenocephalides felis—Oral Test
as §2
To produce a suitable active ingredient formulation, 10 mg of active ingredient are mixed with 0.5 ml of dimethyl sulfoxide. Dilution with citrated cattle blood gives the desired concentration.
About 20 unfed adult cat fleas (Ctenocephalides felis) are placed into a chamber which is closed at the top and bottom with gauze. A metal cylinder whose bottom end is closed with parafilm is placed onto the chamber. The cylinder contains the blood/active ingredient formulation, which can be imbibed by the fleas through the parafilm membrane.
After 2 days, the rate of extermination in % is determined. 100% means that all of the fleas have been killed; 0% means that none of the fleas have been killed.

Lucilia cuprina = Lucilia cuprina test; conditions: application rate 100 ppm, L1 larvae, after 2 days
Experimental: as §2
(§4) To produce a suitable active ingredient formulation, 10 mg of active ingredient are mixed with 0.5 ml of dimethyl sulfoxide, and the concentrate is diluted with water to the desired concentration.
About 20 L1 larvae of the Australian sheep blowfly (Lucilia cuprina) are transferred into a test vessel containing minced horsemeat and the active compound preparation of the desired concentration.
After 2 days, the rate of extermination in % is determined. 100% means that all the larvae have been killed; 0% means that no larvae have been killed.

Musca domestica = Musca domestica test; conditions: application rate 100 ppm, adult houseflies, after 2 days
Experimental: as §2, §4
Vessels containing a sponge treated with sugar solution and the active ingredient formulation of the desired concentration are populated with 10 adult houseflies (Musca domestica).
After 2 days, the rate of extermination in % is determined. 100% means that all of the flies have been killed; 0% means that none of the flies have been killed.

Work on `CS(=O)(=O)NC(=O)c1csc(-c2cnn(-c3cccnc3)c2)n1` [Example No. 36 WO2012/000896, reference compound] yielded an Emax at 100 g/ha (Myzus persicae; Myzus persicae, 144 h, MYZUPE, 100 g ai/ha, 6 dat, read-out: % efficacy dat) of 0%, an Emax at 500 g/ha (Phaedon cochleariae; Phaedon cochleariae, 168 h, PHAECO, 500 g ai/ha, 7 dat, read-out: % efficacy dat) of 0% and an Emax at 500 g/ha (Spodoptera frugiperda; Spodoptera frugiperda, 168 h, SPODFR, 500 g ai/ha, 7 dat, read-out: % efficacy dat) of 0%. For the same molecule, the Emax at 500 g/ha (Tetranychus urticae; Tetranychus urticae, 144 h, TETRUR, 500 g ai/ha, 6 dat, read-out: % efficacy dat) was 0%.

`N#CC1(NC(=O)c2cc(-c3cnn(-c4c(Cl)cc(C(F)(C(F)(F)F)C(F)(F)F)cc4Cl)c3)sc2Br)CC1` [I-T1-2] showed an efficacy (Rhipicephalus sanguineus) of 100%, an efficacy [1] of 100% and an efficacy (Boophilus microplus) of 100%. The “efficacy (rate of extermination)” value (Ctenocephalides felis) was 100%, the “efficacy (rate of extermination)” value (Lucilia cuprina) was 100% and the “efficacy (rate of extermination)” value (Musca domestica) was 100%. The efficacy (Myzus persicae; application rate 100 g/ha, spray, after 5 days) was 100%, the efficacy (Phaedon cochleariae) was 100% and the efficacy (Spodoptera frugiperda) was 100%. The efficacy (Tetranychus urticae; application rate 20 g/ha) was 90%.

`Cn1cc(-c2cnn(-c3c(Cl)cc(C(F)(C(F)(F)F)C(F)(F)F)cc3Cl)c2)cc1C(=O)NC1(C#N)CC1` [I-T1-4] was tested, and the efficacy (Boophilus microplus) was 100%, the “efficacy (rate of extermination)” value (Ctenocephalides felis) was 100% and the “efficacy (rate of extermination)” value (Lucilia cuprina) was 100%. The efficacy (Phaedon cochleariae) was 100%.

In the case of `N#CC1(NC(=O)c2csc(-c3cnn(-c4c(Cl)cc(C(F)(C(F)(F)F)C(F)(F)F)cc4Cl)c3)n2)CC1` [I-T1-5, N-(1-cyanocyclopropyl)-2-{1-[2,6-dichloro-4-(1,1,1,2,3,3,3-heptafluoropropan-2-yl)phenyl]-1H-pyrazol-4-yl}-1,3-thiazole-4-carboxamide], the “efficacy (rate of extermination)” value (Ctenocephalides felis) is reported as 100%, the “efficacy (rate of extermination)” value (Lucilia cuprina) is reported as 80% and the “efficacy (rate of extermination)” value (Musca domestica) is reported as 90%. It also gave a pest or weed control at 100 g/ha (Phaedon cochleariae; Phaedon cochleariae, 168 h) of 100%.

In the case of `O=C(NCc1ccccc1)c1cc(-c2cnn(-c3c(Cl)cc(C(F)(C(F)(F)F)C(F)(F)F)cc3Cl)c2)sc1Br` [I-T1-6], the efficacy (Boophilus microplus) is reported as 100%, the “efficacy (rate of extermination)” value (Ctenocephalides felis) is reported as 100% and the “efficacy (rate of extermination)” value (Lucilia cuprina) is reported as 95%. It also gave an efficacy (Spodoptera frugiperda) of 100%.

Molecule `O=C(NC1CC1)c1nc(-c2cnn(-c3c(Cl)cc(C(F)(C(F)(F)F)C(F)(F)F)cc3Cl)c2)sc1Cl` [I-T1-7] has an efficacy (Boophilus microplus) of 100% and an efficacy (Phaedon cochleariae) of 83%.

For `O=C(NC1CC1)c1csc(-c2cnn(-c3c(Cl)cc(C(F)(C(F)(F)F)C(F)(F)F)cc3Cl)c2)n1` [I-T1-8], the “efficacy (rate of extermination)” value (Ctenocephalides felis) was 100%, the “efficacy (rate of extermination)” value (Lucilia cuprina) was 80% and the efficacy (Phaedon cochleariae) was 83%.

In the case of `O=C(NC1CC1)c1cc(-c2cnn(-c3c(Cl)cc(C(F)(C(F)(F)F)C(F)(F)F)cc3Cl)c2)sc1I` [I-T1-14], the efficacy (Rhipicephalus sanguineus) is reported as 100%, the efficacy [1] is reported as 100% and the efficacy (Boophilus microplus) is reported as 100%. The “efficacy (rate of extermination)” value (Ctenocephalides felis) was 100%, the “efficacy (rate of extermination)” value (Lucilia cuprina) was 100% and the “efficacy (rate of extermination)” value (Musca domestica) was 100%. It also gave an efficacy (Phaedon cochleariae) of 100%, an efficacy (Spodoptera frugiperda) of 100% and an efficacy (Tetranychus urticae; application rate 100 g/ha) of 100%.

In the case of `N#CC1(NC(=O)c2cc(-c3cnn(-c4c(Cl)cc(C(F)(C(F)(F)F)C(F)(F)F)cc4Cl)c3)sc2I)CC1` [I-T1-15], the efficacy (Rhipicephalus sanguineus) is reported as 80%, the efficacy (Boophilus microplus) is reported as 100% and the “efficacy (rate of extermination)” value (Ctenocephalides felis) is reported as 100%. For the same molecule, the “efficacy (rate of extermination)” value (Lucilia cuprina) was 100%, the “efficacy (rate of extermination)” value (Musca domestica) was 100% and the efficacy (Phaedon cochleariae) was 100%. The efficacy (Spodoptera frugiperda) was 100%, the efficacy (Tetranychus urticae; application rate 20 g/ha) was 90% and the efficacy (Tetranychus urticae; application rate 100 g/ha) was 100%.

In the case of `N#CC1(NC(=O)c2cc(-c3cnn(-c4c(Cl)cc(C(F)(C(F)(F)F)C(F)(F)F)cc4Cl)c3)sc2Cl)CC1` [I-T1-17, 2-chloro-N-(1-cyanocyclopropyl)-5-{1-[2,6-dichloro-4-(1,1,1,2,3,3,3-heptafluoropropan-2-yl)phenyl]-1H-pyrazol-4-yl}thiophene-3-carboxamide], the pest or weed control at 100 g/ha (Phaedon cochleariae; Phaedon cochleariae, 168 h) is reported as 100%, the pest or weed control at 100 g/ha (Spodoptera frugiperda; Spodoptera frugiperda, 168 h) is reported as 100% and the efficacy (Tetranychus urticae; application rate 20 g/ha) is reported as 100%. It also gave an efficacy (Tetranychus urticae; application rate 100 g/ha) of 100%.

For `CN(C(=O)c1cc(-c2cnn(-c3c(Cl)cc(C(F)(C(F)(F)F)C(F)(F)F)cc3Cl)c2)sc1Cl)C1(C#N)CC1` [I-T1-18, 2-chloro-N-(1-cyanocyclopropyl)-5-{1-[2,6-dichloro-4-(1,1,1,2,3,3,3-heptafluoropropan-2-yl)phenyl]-1H-pyrazol-4-yl}-N-methylthiophene-3-carboxamide], the pest or weed control at 100 g/ha (Phaedon cochleariae; Phaedon cochleariae, 168 h) was 100% and the pest or weed control at 100 g/ha (Spodoptera frugiperda; Spodoptera frugiperda, 168 h) was 100%.
